Laboratory results taken from US20140037604A1, “NUTRITIONAL COMPOSITIONS COMPRISING ALPHA-HYDROXYISOCAPROIC ACID” (NESTEC S.A., priority 2011, published 2014).
Entries after “also recorded” stand apart in the source; their conditions may differ. Read-outs that look alike come from different tables or passages of the source. Values belong to the molecule of their own block, whether it stands above or below them.

Legend:
[1] = system: intestinal mammalian target of rapamycin (mTOR); details: piglet stressed with LPS; cited from earlier work
[2] = system: gastrocnemius of hindlimb-immobilized rats; test: Muscle atrophy and recovery after unilateral hindlimb immobilization (gastrocnemius weight); format: in vivo, male Wistar rats; details: for Muscle regrowth (gastrocnemius mass) 7 days after removal of the cast: 7 days immobilization + 7 days recovery, compared to control diet; for Decrease in gastrocnemius mass by immobilization: 7 days of cast immobilization, versus contralateral uncasted limb; for Mass of previously immobilized gastrocnemius compared to contralateral uncasted muscle: recovery day 14
Text: (§1) Water was provided ad libitum.

[3] = system: protein synthesis in gastrocnemius, liver and heart; test: In vivo rate of tissue protein synthesis, flooding-dose technique with [3H]-L-phenylalanine; parameters: species or system male Wistar rats; details: for In-vivo-determined tissue protein synthesis: Liver / In-vivo-determined tissue protein synthesis: Heart: freely fed rats; for In-vivo-determined tissue protein synthesis: Heart: no unit in table (text b163: nmol Phe/h/mg protein); for Immobilization (casting)-induced decrease in muscle protein synthesis: gastrocnemius, 7 days of immobilization
Procedure: as §1
The in vivo rate of protein synthesis in gastrocnemius, liver and heart (ventricle only) was determined using the flooding-dose technique, exactly as described (Vary T C and Lang C H, Assessing effects of alcohol consumption on protein synthesis in striated muscles. Methods Mol Biol 447: 343-355, 2008). A P-50 catheter was placed in the left carotid artery for the withdrawal of blood. Rats were injected intravenously (IV) with [^3H]-L-phenylalanine (Phe; 150 mM, 30 μCi/ml; 1 ml/100 g body weight) and blood was collected 15 min later for determining the plasma Phe concentration and radioactivity. Thereafter, tissues were rapidly excised and a portion freeze-clamped and then stored at −70° C. The rate of protein synthesis was calculated by dividing the amount of radioactivity incorporated into protein by the plasma Phe specific radioactivity. The specific radioactivity of the plasma Phe was measured by high performance liquid chromatography (HPLC) analysis of supernatant from trichloroacetic acid (TCA) extracts of plasma. In addition, samples of fresh muscle were homogenized for Western blot and analysis of selected proteins and another piece of tissue used for qRT-PCR, as described below.

Hematological profile = format: in vivo, male Wistar rats; details: means ± SEM; for Hematocrit / Hemoglobin / Lymphocytes / MCH / MCV / Neutrophils / Platelets / RBC / WBC: blood; for Protime (prothrombin time): citrated blood
Procedure: (§2) Blood was collected from the arterial catheter while rats were anesthetized and prior to injection of [^3H]-Phe. Blood was dispensed to determine standard hematological and biochemical endpoints. For hematology analyses, 250-500 μl of blood was dispensed to tubes containing EDTA (BD No. 365974; Fisher Scientific). Hematology analyses (Heska CBC-Diff Hematology Analyzer, Loveland, Colo.) included: red and white blood cell counts, hematocrit, hemoglobin, platelets, and differential leukocyte counts. Reticulocytes were counted manually using methylene blue stain. In addition, 900 μl blood was dispensed to a tube containing 100 μl of 0.109 M sodium citrate (BD Medical No. 363083; Fisher Scientific) for measurement of prothrombin time (BBL Fibrometer System, Cockeysville, Md.). The remaining blood was dispensed to a silicone-coated collection tube (BD No. 366381; Fisher Scientific) and allowed to clot. Clotted blood samples were centrifuged in a Beckman Coulter Allegra X-12R centrifuge at 3500 rpm for 5 min at 4° C., and the serum was collected and stored. Biochemical analyses on serum was performed on a Cobas Mira Plus Chemistry Analyzer (Diamond Diagnostics, Holliston, Mass.) and included: total bilirubin, glucose, aspartate aminotransferase, alanine aminotransferase, lactate dehydrogenase, albumin, calcium, creatinine, urea, phosphate, total cholesterol, chloride, and total protein. Serum sodium and potassium were analyzed by flame photometer (IL940; Instrumentation Laboratory, Lexington, Mass.). Triglycerides and free fatty acids (FFAs) were determined colorimetrically (Abcam, Cambridge, Mass.; Wako Diagnostics, Richmond, Va., respectively). Insulin was determined by ELISA (Alpco diagnostics, Salem, N.H.). The homeostatic model assessment of insulin resistance (HOMA-IR) was calculated to provide an estimate of whole-body insulin resistance (Turner R C, Holman R R, Matthews D, Hockaday T D and Peto J. Insulin deficiency and insulin resistance interaction in diabetes: estimation of their relative contribution by feedback analysis from basal plasma insulin and glucose concentrations. Metabolism 28: 1086-1096,1979).

[4] = Organ weights of rats fed supplemented diets
Text: (§3) Animal protocols. The experiments described herein were broadly organized into two experimental series. Both studies used male Wistar rats (Charles River Breeding Laboratories, Cambridge, Mass.) which acclimated for 1 week in a controlled environment. Rats were shipped at 350-375 g and were approximately 12 wks of age. Water and standard rat chow were provide ad libitum.
(§4) The following custom diets were commercially prepared (Dytes, Bethlehem, Pa.): control diet (AIN93M), or isocaloric, isonitrogenous diets supplemented with α-hydroxy-isocaproic acid (HICA) or leucine (Leu) (Table 1). […] Therefore, animals were provided the dietary intervention for a period of 6 days prior to hindlimb immobilization.
(§5) The foot was positioned in plantar-flexion to induce maximal atrophy of the gastrocnemius and rats received 10 ml of 0.9% warmed (37° C.) sterile saline for resuscitation. […] Consequently, the contralateral limb served as the control in all subsequent experiments. After casting, rats were housed individually and were continued to be pair-fed for a period of 7 days. Water was provided ad libitum. On day 7 after casting, rats were anesthetized with pentobarbital and the cast atraumatically and rapidly (<2 min) removed (Stryker Instruments, Kalamzoo, Mich.).

[5] = Blood chemistry profile, metabolic substrates and hormone (serum); format: in vivo, male Wistar rats; details: for Insulin: ELISA; for Insulin / HOMA-IR (homeostatic model assessment of insulin resistance) / Triglycerides / ALT / AST / Albumin / BUN / Bilirubin, total / Calcium / Chloride / Cholesterol / Creatinine / Glucose / LDH / Phosphorous / Potassium / Protein, total / Sodium: means ± SEM; for HOMA-IR (homeostatic model assessment of insulin resistance): calculated from insulin and glucose; for ALT / AST / Albumin / BUN / Bilirubin, total / Calcium / Chloride / Cholesterol / Creatinine / Glucose / LDH / Phosphorous / Potassium / Protein, total / Sodium: serum; for Sodium: all studies combined
Procedure: as §2

[6] = rat, in vivo
Text: as §3, §4, §5

[7] = means ± SEM, all studies combined, no unit in table
[8] = means ± SEM, all studies combined
[9] = supplemented diet, means ± SEM, all studies combined

SMILES: O=C(O)CCC(=O)C(=O)O [AKG, α-ketoglutarate]
- Crypt depth [1]: reduced crypt depth
- Phosphorylation of intestinal mTOR [1]: increased phosphorylation
- Villous height [1]: increased villous height

- Hematocrit (Hematological profile): 40 ± 1%
- Hemoglobin (Hematological profile): 15.2 ± 0.5 g/dL
- Lymphocytes (Hematological profile): 70 ± 2%
- MCH (Hematological profile): 17.9 ± 0.1 pg
- MCV (Hematological profile): 47 ± 1 fL
- Neutrophils (Hematological profile): 24 ± 2%
- Platelets (Hematological profile): 1207 ± 60 103/μl
- RBC (Hematological profile): 8.49 ± 0.31 106/μl
- WBC (Hematological profile): 2.5 ± 0.2 103/μl
- Protime (prothrombin time) (Hematological profile): 19 ± 1 s
- Organ weight: Liver ([4]; diet with α-HICA 50.4 g/kg or leucine 50 g/kg, means ± SEM, data combined from all studies): 12.00 ± 0.35 g
- Kidney weight compared between diets ([4]; rat, in vivo): did not differ
- Organ weight: Adrenal [4, 9]: 403 ± 16 mg
- Organ weight: Kidney [4, 9]: 1.22 ± 0.03 g
- Organ weight: Spleen [4, 9]: 960 ± 37 mg
- Organ weight: Testes [4, 9]: 1.82 ± 0.03 g
- Organ weight: Heart ([4]; ventricle only, supplemented diet, means ± SEM, all studies combined): 1.13 ± 0.02 g
- Insulin [5]: 1.90 ± 0.15 a ng/ml
- HOMA-IR (homeostatic model assessment of insulin resistance) [5]: 27.1 ± 3.2 a
- Triglycerides [5]: 609 ± 51 µmol/L
- Markers of renal function (creatinine and BUN) compared to control values ([5]; rat, in vivo): generally unaffected
- Serum insulin concentration compared to control rats ([5]; rat, in vivo): did not differ
- Albumin [5]: 3.31 ± 0.04 g/dL
- BUN [5]: 16.2 ± 0.6a mg/dL
- Bilirubin, total [5]: 0.5 ± 0.04 mg/dL
- Calcium [5]: 9.5 ± 0.1 mg/dL
- Chloride [5]: 101 ± 1 mmol/L
- Cholesterol [5]: 62 ± 3 mg/dL
- Creatinine [5]: 0.3 ± 0.02 mg/dL
- Glucose [5]: 223 ± 11 mg/dL
- LDH [5]: 232 ± 23 U/L
- Phosphorous [5]: 5.8 ± 0.2a mg/dL
- Potassium [5]: 4.9 ± 0.1a mmol/L
- Protein, total [5]: 5.0 ± 0.1 g/dL
- Sodium [5]: 141 ± 1 mmol/L
- Deleterious effects on whole-body and tissue-specific metabolic and hematological parameters ([5]; supplementation for up to 3 wks): no apparent deleterious effects
SMILES: CC(C)CC(O)C(=O)O (stereo not drawn) [HICA, α-hydroxy-isocaproic acid]
- Muscle regrowth (gastrocnemius mass) 7 days after removal of the cast [2]: not altered
- Decrease in gastrocnemius mass by immobilization [2]: 0.61 ± 0.09 g
- Mass of previously immobilized gastrocnemius compared to contralateral uncasted muscle [2]: did not differ; also recorded: complete recovery of mass
- Prevention or amelioration of the reduction in muscle mass produced by disuse ([2]; unilateral hindlimb immobilization): failed to prevent or ameliorate the accompanying reduction in muscle mass
- Increment in protein synthesis in the previously immobilized muscle ([3]; after a 7-day recovery period, not statistically significant versus control-fed rats): 0.77±0.17 nmol Phe/h/mg protein
- Protein synthesis in the previously immobilized muscle compared to contralateral uncasted muscle ([3]; day 14 of recovery): still increased
- Increment in muscle protein synthesis compared to other groups ([3]; day 14 of recovery, failed to achieve statistical significance): tended to be increased
- In-vivo-determined tissue protein synthesis: Liver [3, 7]: 24.41 ± 0.90
- In-vivo-determined tissue protein synthesis: Heart [3, 8]: 2.76 ± 0.11
- Immobilization (casting)-induced decrease in muscle protein synthesis [3]: no immobilization-induced decrease
- Immobilization (casting)-induced decrease in muscle protein synthesis ([3]; listed as αHICA): prevented the casting-induced decrease in muscle protein synthesis
- In-vivo-determined tissue protein synthesis: GAstrocnemius (control) ([3]; uncasted control muscle, means ± SEM, all studies combined, no unit in table): 1.26 ± 0.04
- Basal rate of protein synthesis in uncasted muscle, lower than control-fed rats ([3]; uncasted gastrocnemius): 10%
- ALT [5]: 24 ± 1 U/L
- AST [5]: 74 ± 4 U/L

- Hematocrit (Hematological profile): 41 ± 1%
- Hemoglobin (Hematological profile): 15.7 ± 0.3 g/dL
- Lymphocytes (Hematological profile): 73 ± 3%
- MCH (Hematological profile): 17.9 ± 0.2 pg
- MCV (Hematological profile): 47 ± 1 fL
- Neutrophils (Hematological profile): 23 ± 3%
- Platelets (Hematological profile): 1206 ± 56 103/μl
- RBC (Hematological profile): 8.98 ± 0.28 106/μl
- WBC (Hematological profile): 2.7 ± 0.2 103/μl
- Protime (prothrombin time) (Hematological profile): 18 ± 1 s
- Kidney weight compared between diets [6]: did not differ
- Insulin [5]: 3.64 ± 0.32 c ng/ml
- HOMA-IR (homeostatic model assessment of insulin resistance) [5]: 47.7 ± 4.6b
- Triglycerides [5]: 667 ± 52 µmol/L
- HOMA-IR compared to control rats or those fed a HICA-containing diet ([5]; rat, in vivo): significantly greater
- Markers of renal function (creatinine and BUN) compared to control values ([5]; rat, in vivo): generally unaffected
- Serum phosphorus concentration, elevation compared to control values ([5]; rat, in vivo): 18%
- Serum potassium concentration compared to control- or HICA-fed rats ([5]; rat, in vivo): lower
- Albumin [5]: 3.42 ± 0.03 g/dL
- BUN [5]: 16.2 ± 0.5a mg/dL
- Bilirubin, total [5]: 0.3 ± 0.02 mg/dL
- Calcium [5]: 9.6 ± 0.1 mg/dL
- Chloride [5]: 100 ± 1 mmol/L
- Cholesterol [5]: 63 ± 4 mg/dL
- Creatinine [5]: 0.3 ± 0.01 mg/dL
- Glucose [5]: 214 ± 8 mg/dL
- LDH [5]: 169 ± 21 U/L
- Phosphorous [5]: 7.0 ± 0.2b mg/dL
- Potassium [5]: 4.1 ± 0.1b mmol/L
- Protein, total [5]: 5.0 ± 0.1 g/dL
- Sodium [5]: 140 ± 1 mmol/L
SMILES: CC(C)C[C@H](N)C(=O)O [Leucine, leucine]
- Muscle regrowth (gastrocnemius mass) 7 days after removal of the cast [2]: not altered
- Decrease in gastrocnemius mass by immobilization [2]: 0.57 ± 0.08 g
- Mass of previously immobilized gastrocnemius compared to contralateral uncasted muscle ([2]; listed as Leu): a reduction in mass of the previously immobilized muscle was still detected; also recorded: partial recovery of gastrocnemius mass
- Protein synthesis in the previously immobilized muscle compared to contralateral uncasted muscle ([3]; day 14 of recovery, listed as Leu): not different from the uncasted muscle; also recorded: returned to basal values
- In-vivo-determined tissue protein synthesis: Liver [3, 7]: 22.51 ± 0.88
- In-vivo-determined tissue protein synthesis: Heart [3, 8]: 2.93 ± 0.11
- Immobilization (casting)-induced decrease in muscle protein synthesis ([3]; listed as Leu): decreased protein synthesis to the same extent; also recorded: failed to prevent the casting-induced decrease in protein synthesis
- Protein synthesis in the uncasted muscle compared to control-fed rats ([3]; uncasted gastrocnemius): did not differ
- ALT [5]: 24 ± 1 U/L
- AST [5]: 68 ± 4 U/L
